Measured values: ChEMBL document CHEMBL1150149, “Bacopaside III, bacopasaponin G, and bacopasides A, B, and C from Bacopa monniera” (2002)

Tested on: Rattus norvegicus
Assay: Antihyperglycemic activity against streptozotocin-induced diabetic rat assessed as change in plasma glucose at 1 mM/kg, iv
Format: functional

O=C(O)[C@H]1O[C@@H](Oc2cc(O)c3c(=O)cc(-c4ccc(O)c(O)c4)oc3c2)[C@H](O)[C@@H](O)[C@@H]1O
Activity: -25.54%
